Measurements from the supplement of paper PMC6045584.

What was measured:
Test in all cases: area under dose-response curve of surviving fraction (unscaled, Aref=0) (surviving fraction x log10(nM)); higher = more resistant
Details in all cases: exposure time: 5 days; dose range 0.5-1000 nM
SORAFENIB = compound: CNC(=O)c1cc(Oc2ccc(NC(=O)Nc3ccc(Cl)c(C(F)(F)F)c3)cc2)ccn1 [SORAFENIB]
Summary of the method: (§1)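 Tumour cell lines in 384-well plates were exposed to eight inhibitor concentrations, from 0.5 to 1000 nM, for five days, and viability was read by CellTiter-Glo luminescence in three screens per line. Signals were normalised to DMSO-only wells, and 3-parameter logistic regression in the drc R package fitted dose-response survival curves to the surviving fractions. Area under the curve is given as the unscaled activity area. That area is taken over log10 dose with Aref = 0.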

[1] = compound: COc1cc2ncnc(Nc3ccc(F)c(Cl)c3)c2cc1NC(=O)/C=C/CN1CCCCC1
Summary of the method: as §1

[2] = compound: C[C@@H](Oc1cc(-c2cnn(C3CCNCC3)c2)cnc1N)c1c(Cl)ccc(F)c1Cl
Summary of the method: as §1

OLAPARIB = compound: O=C(c1cc(Cc2n[nH]c(=O)c3ccccc23)ccc1F)N1CCN(C(=O)C2CC2)CC1 [OLAPARIB]
Summary of the method: as §1

FORETINIB = compound: COc1cc2c(Oc3ccc(NC(=O)C4(C(=O)Nc5ccc(F)cc5)CC4)cc3F)ccnc2cc1OCCCN1CCOCC1 [FORETINIB]
Summary of the method: as §1

DASATINIB = compound: Cc1nc(Nc2ncc(C(=O)Nc3c(C)cccc3Cl)s2)cc(N2CCN(CCO)CC2)n1 [DASATINIB]
Summary of the method: as §1

TEMOZOLOMIDE = compound: Cn1nnc2c(C(N)=O)ncn2c1=O [TEMOZOLOMIDE]
Summary of the method: as §1

XAV-939 = compound: Oc1nc(-c2ccc(C(F)(F)F)cc2)nc2c1CSCC2 [XAV-939]
Summary of the method: as §1

MLN-4924 = compound: NS(=O)(=O)OC[C@@H]1C[C@@H](n2ccc3c(N[C@H]4CCc5ccccc54)ncnc32)C[C@@H]1O [MLN-4924]
Summary of the method: as §1

CRIZOTINIB = compound: C[C@@H](Oc1cc(-c2cnn(C3CCNCC3)c2)cnc1N)c1c(Cl)ccc(F)c1Cl [CRIZOTINIB]
Summary of the method: as §1

Test System | area under dose-response curve (SORAFENIB) | area under dose-response curve [1] | area under dose-response curve [2] | area under dose-response curve (OLAPARIB) | area under dose-response curve (FORETINIB) | area under dose-response curve (DASATINIB) | area under dose-response curve (TEMOZOLOMIDE) | area under dose-response curve (XAV-939) | area under dose-response curve (MLN-4924) | area under dose-response curve (CRIZOTINIB)
143B BONE | 3.46 | 3.27 | 3.2 | 3.36 |  |  |  |  |  | 
BT20 BREAST |  | 3.27 | 2.71 | 2.92 | 2.97 | 2.46 | 3.53 | 3.66 |  | 
CAL72 BONE | 3.59 | 3.26 | 3.32 | 3.24 | 3.09 | 1.77 | 3.47 | 3.18 | 2.83 | 
CME SYNOVIAL | 4.2 | 4.38 | 3.05 | 2.56 |  | 2.06 | 4.38 | 4.09 | 2.38 | 
DU4475 BREAST |  |  | 2.23 |  | 2.98 | 2.37 | 3.12 |  | 1.46 | 2.9
HCC202 BREAST |  | 1.81 | 4.02 | 2.74 |  |  |  |  |  | 
HCC1395 BREAST | 3.88 | 3.19 | 3.01 | 3.21 |  | 2.59 | 3.46 | 2.87 | 3.56 | 4.21
HCC1806 BREAST | 3.16 | 2.42 | 2.87 | 2.84 |  | 1.53 | 3.62 | 3.59 | 1.35 | 3.08
HCC1954 BREAST | 3.17 | 1.98 | 1.37 | 3.08 |  | 0.867 | 3.75 | 3.2 | 2.34 | 
HUO3N1 BONE | 3.13 | 3.17 | 3.14 | 3.21 | 2.9 | 1.45 | 3.36 |  | 3.13 | 
MDAMB134 BREAST | 3.71 |  | 2.51 | 3.02 |  | 2.13 | 3.51 | 3.4 | 2.2 | 
MDAMB453 BREAST | 3.59 | 3.06 | 3.17 | 3.22 |  | 3.37 | 3.62 | 3.47 | 2.43 | 
MDAMB468 BREAST | 3.82 | 2.43 | 3.05 | 2.89 |  | 2.57 | 3.67 |  | 2.17 | 3.08
MG63 BONE | 3.52 | 3.25 | 2.86 | 3.26 | 2.87 | 1.88 | 3.4 | 3.05 | 2.01 | 
NCIH441 LUNG |  | 3.01 | 3.16 | 3.38 | 3.13 | 2.55 | 3.69 | 3.35 | 2.76 | 
NY BONE | 3.41 | 3.15 | 2.97 | 3.27 | 2.96 | 2 | 3.45 | 3.27 | 2.47 | 
PCI30 HEADNECK |  | 1.71 | 3.12 | 3.15 | 3.16 | 2.63 | 3.28 |  | 2.6 | 
